Test results from patent US20080113956A1, “Substituted Porphyrins” (priority 1997, published 2008).

Legend:
[1] = system: DNA; assay: SOD activity in vitro in the presence of DNA (DNA interaction); type: biochemical
Description: The “ortho effect” also decreases the toxicity. It is well known that porphyrins, and particularly cationic porphyrins, interact with DNA and can act as DNA cleavers. This fact can be an issue in the use of metallo-porphyrins as anti-tumor drugs. The present mimetics avoid this interaction.
In order to maximize the decrease in toxicity due to interaction with DNA, two derivatives of the ortho compound have been prepared which carry four ethyl or four butyl groups (“4” and “5”, respectively).

[2] = Water solubility of the chloride salt; type: physicochemical; settings: micelles were not observed
Description: The same procedure described above was used. 0.92 mL of 1-iodobutane (100 eq) was added and the mixture stirred at 100° C. for 7 days. […] The elemental analysis was thus performed on the hexafluorophosphate salt (non-viscous). The chlorine salt is water-soluble (micelles were not observed). UV(H2O) of the chloride salt, ε454.0 1.21×10^5 M^−1cm^−1. Elemental analysis, calcd. For MnC56H60N8P5F30.H2O: C (40.94), H (3.80), N (6.82); found: C (41.15), H (4.35), N (6.52).

[3] = SOD-like activity in vitro (xanthine/xanthine oxidase, ferricytochrome c; McCord and Fridovich); type: biochemical; settings: Example VII
Description: (§1) SOD activity can be monitored in the presence and absence of EDTA using the method of McCord and Fridovich (J. Biol. Chem. 244:6049 (1969)). The efficacy of a mimetic can also be determined by measuring the effect of the mimetic on the aerobic growth of a SOD null E. coli strain versus a parental strain lacking the specific mutations. Specifically, parental E. coli (AB1157) and SOD null E. coli. (JI132) can be grown in M9 medium containing 0.2% casamino acids and 0.2% glucose at pH 7.0 and 37° C.; growth can be monitored in terms of turbidity followed at 700 nm.
The superoxide dismutase activity of the mimetics of the invention depends on a number of factors, including thermodynamic factors (eg the metal-centered redox-potential see FIG. 1)), and kinetic factors (eg electrostatic facilitation).
Superoxide dismuting activity. The SOD-like activities were measured using the xanthine/xanthine oxidase system as a source of O2^− and ferricytochrome c as its indicating scavenger (McCord et al, J. Biol. Chem. 244:6049 (1969)). O2— was produced at the rate of 1.2 μM per minute and reduction of ferricytochrome c was followed at 550 nm. Assays were conducted in presence of 0.1 mM EDTA in 0.05 M phosphate buffer (pH 7.8). Rate constants for the reaction of the compounds were based upon competition with […] cytochrome c, kcyt c=2.6×10^5 M^−1s^−1 (Butler et al, J. Biol. Chem. 257:10747 (1982)). All measurements were done at 25° C. Cytochrome c concentration was at least 10^3-fold higher than the concentrations of the SOD mimics and the rates were linear for at least two minutes, during which the compounds intercepted ˜100 equivalents of O2^−, thus confirming the catalytic nature of O2^− dismutation in presence of the mimics.
Superoxide dismuting activities. SOD-like activities were measured as described previously, based on competition with cytochrome c (McCord et al, J. Biol. Chem. 244:6049 (1969)). MnClxTE-2-PyP^5+ SOD-like activities are reported in Table 5, IC50 (M) representing the concentration for one unit of activity (or the concentration that causes 50% inhibition of cytochrome c reduction by O2^−) and kcat (M^−1s^−1) representing the rate constant for the superoxide dismutation reaction. The SOD-like activity per mole of MnCl4TE-2-PyP^5 is approximately 2-, 7- and 100-fold higher than MnOBTMPyP^4+, MnTM-2-PyP^5+ and MnTM-4PyP^5+, respectively (Faulkner et al, J. Biol. Chem. 269:23471 (1994); Batinic-Haberle et al, Arch. Biochem. Biophys. 343:225 (1997); Batinic-Haberle et al, J. Biol. Chem. 273:24521 (1998)). The SOD-like activity of MnCl4TE-2-PyP^5+ represents 20% of the activity of the Cu,Zn-SOD enzyme on a molar basis (40% per active site considering that the enzyme has two active sites) (Klug-Roth et al, J. Am. Chem. Soc. 95:2786 (1973)).

[4] = Electrochemistry: metal-centered redox potential; type: physicochemical; settings: vs NHE; listed as 2
Description: Electrochemistry. The electrochemical characterization was performed as described previously on a Voltammetric Analyzer Model 600 (CH instrument) using a glassy carbon electrode (Ag/AgCl reference and Pt auxiliary electrodes), at 0.5 mM porphyrin, pH 7.8 (0.05 M phosphate buffer), 0.1 M NaCl. The potentials were standardized against potassium ferricyanide/potassium ferrocyanide couple (Batinic-Haberle et al, Arch. Biochem. Biophys. 343:225 (1997); Kolthof et al, J. Phys. Chem. 39:945 (1974)).
Electrochemistry. The metal-centered redox behavior of all metalloporphyrin products was reversible. The half-wave potentials (E^O1/2) were calculated as the average of the cathodic and anodic peaks and are given in mV vs NHE (Table 5). The average shift per chlorine is +55 mV (Table 5), which is in agreement with the values previously reported for H2TPP derivatives (between −50 and +70 mV) (Sen et al, Chem. Soc. Faraday Trans. 93:4281 (1997); Autret et al. J. Chem. Soc. Dalton Trans. 2793 (1996); Hariprasad et al, J. Chem. Soc. Dalton Trans. 3429 (1996); Tagliatesta et al, Inorg. Chem. 35:5570 (1996); Ghosh, J. Am. Chem. Soc. 117:4691 (1995); Takeuchi et al, J. Am. Chem. Soc. 116:9730 (1994); Binstead et al, Inorg. Chem. 30:1259 (1991); Giraudeau et al, J. Am. Chem. Soc. 101:3857 (1979)). This shift appears to be higher (˜+65 mV) between 0 and 1, and between 2 and 3 chlorines (Table 5). […] The manganese redox state of MnCl4TE-2-PyP^5 (E^O1/2=+448 mV) and MnOBTMPyP^4+ (E^O1.2=+480 mV) is 3+ and 2+, respectively. This difference may be explained by their difference in terms of redox potential (˜30 mV) but also by structural considerations, for instance an increased distortion of the porphyrin ring in the case of MnOBTMPyP^4+. (Batinic-Haberle et al, Arch. Biochem. Biophys. 343:225 (1997); Ochsenbein et al, Angew. Chem. Int. Ed. Engl. 33:348 (1994)).

[5] = system: SOD null E. coli (JI132); assay: Aerobic growth of SOD null E. coli strain versus parental strain; type: cell-based
Description: FIG. 3. SOD activity in vivo (E. coli) of 1, 2, 3* and 4* (20 μM) in minimal medium (mixture of atropoisomers, JI=SOD deficient strain, AB parental strain).
as §1
The activity in vivo of the mimetics of the invention can be tested on an E. coli strain deleted of the genes coding for both the MnSOD and FeSOD. In this assay, the efficacy of a mimetic is determined by measuring the effect of the mimetic on the aerobic growth of a SOD null E. coli strain versus a parental strain. Specifically, parental E. coli (AB1157) and SOD null E. coli. (JI132) are grown in M9 medium containing 0.2% casamino acids and 0.2% glucose at pH 7.0 and 37° C.; growth is monitored in terms of turbidity followed at 700 nm.

| Compound | toxicity due to interaction with DNA, comparison between ortho derivatives ([1]; Table 2 and FIG. 3) | solubility in water [2] | rate of dismutation (kcat) [3] | interaction with DNA ([1]; SOD activity in vitro in the presence of DNA) | E1/2 one-electron metal-centered redox-potential [4] | aerobic growth (A700) of SOD null E. coli cells ([5]; 20 μM, glucose minimal medium (M9) plus 5 essential amino acids, JI132, listed as 2) | toxicity in vivo (E. coli) ([5]; FIG. 3) |
| --- | --- | --- | --- | --- | --- | --- | --- |
| CCCC[n+]1ccccc1-c1c2nc(c(-c3cccc[n+]3CCCC)c3ccc([n-]3)c(-c3cccc[n+]3CCCC)c3nc(c(-c4cccc[n+]4CCCC)c4ccc1[n-]4)C=C3)C=C2.[Mn+3] [compound 5, manganic meso-tetrakis-(N-butylpyridinium-2-yl)porphyrin] | did not show a further decrease in toxicity | water-soluble |  |  |  |  |  |
| manganese(III) 5,10,15,20-tetrakis(N-methylpyridyl)porphyrin [MnTM-3-PyP^5+] |  |  | 4.1e+06 M⁻¹ s⁻¹ | greatly decreased | +0.042 V | increase in A700 | decreased toxicity |
